Experimental data: patent US9388208B2, “Pyrrolo[1,2-f][1,2,4]triazines useful for treating respiratory syncitial virus infections” (Gilead Sciences, Inc., priority 2013, dated 2016)
Like-named read-outs stand apart in the source and are kept apart here.

Tests used:
[1] = biological target: T1, RSV ribonucleoprotein (RNP) complexes (Human respiratory syncytial virus A, UniProt P28887); experiment: RSV RNP assay (inhibition of RSV RNP transcription); type: biochemical, RSV A2; conditions: 90 minute incubation at 30° C., total radiolabeled transcripts
T1 construct: The supernatant (S3) fraction, containing the enriched RSV RNP complexes, was collected; endogenous in cells; host or cells: HEp-2 cells infected with RSV A2; detergent-extracted crude S3 fraction
Experimental: RSV ribonucleoprotein (RNP) complexes were prepared from a method modified from Mason at al (1). HEp-2 cells were plated at a density of 7.1×10^4 cells/cm^2 in MEM+10% fetal bovine serum (FBS) and allowed to attach overnight at 37° C. (5% CO2). Following attachment, the cells were infected with RSV A2 (M01=5) in 35 mL MEM+2% FBS. At 20 hours post-infection, the media was replaced with MEM+2% FBS supplemented with 2 μg/mL actinomycin D and returned to 37° C. for one hour. The cells were then washed once with PBS and treated with 35 mL of PBS+250 μg/mL lyso-lecithin for one minute, after which all liquid was aspirated. The cells were harvested by scrapping them into 1.2 mL of buffer A [50 mM TRIS acetate (pH 8.0), 100 mM potassium acetate, 1 mM DTT and 2 μg/mL actinomycin D] and lysed by repeated passage through an 18 gauge needle (10 times). The cell lysate was placed in ice for 10 minutes and then centrifuged at 2400g for 10 minutes at 4° C. The supernatant (S1) was removed and the pellet (P1) was disrupted in 600 uL of Buffer B [10 mM TRIS acetate (pH 8.0), 10 mM potassium acetate and 1.5 mM MgCl2] supplemented with 1% Triton X-100 by repeated passage through an 18 gauge needle (10 times). The resuspended pellet was placed in ice for 10 minutes and then centrifuged at 2400g for 10 minutes at 4° C. The supernatant (S2) was removed and the pellet (P2) was disrupted in 600 uL of Buffer B supplemented with 0.5% deoxycholate and 0.1% Tween 40. The resuspended pellet was placed in ice for 10 minutes and then centrifuged at 2400g for 10 minutes at 4° C. The supernatant (S3) fraction, containing the enriched RSV RNP complexes, was collected and the protein concentration determined by UV absorbance at 280 nm. Aliquoted RSV RNP S3 fractions were stored at −80° C.
Transcription reactions contained 25 μg of crude RSV RNP complexes in 30 μL of reaction buffer [50 mM TRIS-acetate (pH 8.0), 120 mM potassium acetate, 5% glycerol, 4.5 mM MgCl2, 3 mM DTT, 2 mM ethyleneglycol-bis(2-aminoethylether)-tetraacetic acid (EGTA), 50 μg/mL BSA, 2.5 U RNasin (Promega), ATP, GTP, UTP, CTP and 1.5 uCi [α-^32P] NTP (3000 Ci/mmol)]. The radiolabeled nucleotide used in the transcription assay was selected to match the nucleotide analog being evaluated for inhibition of RSV RNP transcription. Cold, competitive NTP was added at a final concentration of one-half its Km (ATP=20 μM, GTP=12.5 μM, UTP=6 μM and CTP=2 μM). The three remaining nucleotides were added at a final concentration of 100 μM.
To determine whether nucleotide analogs inhibited RSV RNP transcription, compounds were added using a 6 step serial dilution in 5-fold increments. Following a 90 minute incubation at 30° C., the RNP reactions were stopped with 350 μL of Qiagen RLT lysis buffer and the RNA was purified using a Qiagen RNeasy 96 kit. Purified RNA was denatured in RNA sample loading buffer (Sigma) at 65° C. for 10 minutes and run on a 1.2% agarose/MOPS gel containing 2M formaldehyde. The agarose gel was dried and exposed to a Storm phosphorimager screen and developed using a Storm phosphorimager (GE Healthcare). The concentration of compound that reduced total radiolabeled transcripts by 50% (IC50) was calculated by non-linear regression analysis of two replicates.

RSV strain A2 = experiment: Anti-RSV activity, infectious cytopathic cell protection assay in HEp-2 cells; type: cell-based, Respiratory Syncytial Virus (RSV); conditions: human respiratory syncytial virus
Experimental: Antiviral activity against RSV is determined using an infectious cytopathic cell protection assay in HEp-2 cells. In this assay, compounds inhibiting viral infection and/or replication produce a cytoprotective effect against the virus-induced cell killing that can be quantified using a cell viability reagent. The techniques used here are novel adaptations of methods described in published literature (Chapman et al., Antimicrob Agents Chemother. 2007, 51(9):3346-53.)
HEp-2 cells are obtained from ATCC (Manassas, VI) and maintained in MEM media supplemented with 10% fetal bovine serum and penicillin/streptomycin. Cells are passaged twice a week and kept at subconfluent stage. Commercial stock of RSV strain A2 (Advanced Biotechnologies, Columbia, Md.) is titered before compound testing to determine the appropriate dilution of the virus stock that generates desirable cytopathic effect in HEp-2 cells.
For antiviral tests, HEp-2 cells are grown in large cell culture flasks to near confluency but not fully so. The compounds to be tested are prediluted in DMSO in 384-well compound dilution plates, either in an 8 or 40 sample per plate standardized dose response format. 3-fold serial dilution increments of each test compound are prepared in the plates and test samples are transferred via acoustic transfer apparatus (Echo, Labcyte) at 100 nl per well into cell culture assay 384-well plates. Each compound dilution is transferred in single or quadruplicate samples into dry assay plates, which are stored until assay is ready to go. The positive and negative controls are laid out in opposite on ends of the plate in vertical blocks (1 column).
Subsequently, an infectious mixture is prepared using an appropriate dilution of virus stock previously determined by titration with cells at a density of 50,000/ml and 20 uL/well is added to test plates w/compounds via automation (uFlow, Biotek). Each plate includes negative and positive controls (16 replicates each) to create 0% and 100% virus inhibition standards, respectively. Following the infection with RSV, testing plates are incubated for 4 days in a 37° C. cell culture incubator. After the incubation, a cell viability reagent, Cell TiterGlo (Promega, Madison, Wis.) is added to the assay plates, which are incubated briefly, and a luminescent readout is measured (Envision, Perkin Elmer) in all the assay plates. The RSV-induced cytopathic effect, percentage inhibition, is determined from the levels of remaining cell viability. These numbers are calculated for each tested concentration relative to the 0% and 100% inhibition controls, and the EC50 value for each compound is determined by non-linear regression as a concentration inhibiting the RSV-induced cytopathic effect by 50%. Various potent anti-RSV tool compounds are used as positive controls for antiviral activity.

[2] = Cytotoxicity assay in MT-4 cells; type: cell-based; conditions: human, Cell-Titer Glo
Experimental: The MT-4 cell line was obtained from the NIH AIDS Research and Reference Reagent Program (Germantown, Md.) and cultured in RPMI-1640 medium (Irvine Scientific, Santa Ana, Calif., Cat #9160) supplemented with 10% FBS, 100 units/mL penicillin, 100 units/mL streptomycin, and 2 mM L-Glutamine. The MT-4 cells were passaged twice per week to maintain cell densities below 0.6×10^6 cells/mL. Complete RPMI-1640 media containing 100× concentrations of 3-fold serially diluted compound, ranging from 26 nM to 530 μM, were stamped in quadruplicate into black 384-well plates. After compound addition, 2×10^3 MT-4 cells were added to each well using a MicroFlo liquid dispenser (BioTek, Winooski, Vt.) and the cells were cultured for 5 days at 37° C. in a 5% CO2 incubator. Following the incubation the cells were allowed to equilibrate to 25° C. and cell viability was determined by adding 25 μL of Cell-Titer Glo viability reagent. The mixture was incubated for 10 minutes at 25° C., and the luminescence signal was quantified on a Victor Luminescence plate reader. The CC50 value is defined as the concentration of compound that reduces cell viability by 50% as determined by the Cell-Titer Glo signal. The data were analyzed using Pipeline Pilot Plate Data Analytics Collection software (Version 7.0, Accelrys, San Diego, Calif.). CC50 values were calculated from a non-linear regression analysis using a 4-parameter sigmoidal dose-response equation: Y=Bottom+(Top−Bottom)/(1+10^[(Log CC50−X)*HillSlope]) where the Top and Bottom were fixed at 100% and 0% cell viability, respectively. CC50 values were calculated as the average±standard deviation of 3 independent experiments.

[3] = Cytotoxicity assay in HEp-2 cells; type: cell-based; conditions: human, uninfected HEp-2 cells, CellTiter Glo
Experimental: Cytotoxicity of tested compounds is determined in uninfected HEp-2 cells in parallel with the antiviral activity using the cell viability reagent in a similar fashion as described before for other cell types (Cihlar et al., Antimicrob Agents Chemother. 2008, 52(2):655-65.). The same protocol as for the determination of antiviral activity is used for the measurement of compound cytotoxicity except that the cells are not infected with RSV. Instead, an uninfected cell mixture at the same density is added at 20 ul/well to plates containing prediluted compounds, also at 100 nl/sample. Assay plates are then incubated for 4 days followed by a cell viability test using the same CellTiter Glo reagent addition and measurement of luminescent readouts. Untreated cell and cells treated at 2 uM puromycin (Sigma, St. Louis, Mo.) serve as 100% and 0% cell viability control, respectively. The percent of cell viability is calculated for each tested compound concentration relative to the 0% and 100% controls and the CC50 value is determined by non-linear regression as a compound concentration reducing the cell viability by 50%.

[4] = 96 h, HEp-2 cells infected with RSV A2, 4 days, Cell TiterGlo, read-out: EC50

T1 sequence (P28887 whole entry): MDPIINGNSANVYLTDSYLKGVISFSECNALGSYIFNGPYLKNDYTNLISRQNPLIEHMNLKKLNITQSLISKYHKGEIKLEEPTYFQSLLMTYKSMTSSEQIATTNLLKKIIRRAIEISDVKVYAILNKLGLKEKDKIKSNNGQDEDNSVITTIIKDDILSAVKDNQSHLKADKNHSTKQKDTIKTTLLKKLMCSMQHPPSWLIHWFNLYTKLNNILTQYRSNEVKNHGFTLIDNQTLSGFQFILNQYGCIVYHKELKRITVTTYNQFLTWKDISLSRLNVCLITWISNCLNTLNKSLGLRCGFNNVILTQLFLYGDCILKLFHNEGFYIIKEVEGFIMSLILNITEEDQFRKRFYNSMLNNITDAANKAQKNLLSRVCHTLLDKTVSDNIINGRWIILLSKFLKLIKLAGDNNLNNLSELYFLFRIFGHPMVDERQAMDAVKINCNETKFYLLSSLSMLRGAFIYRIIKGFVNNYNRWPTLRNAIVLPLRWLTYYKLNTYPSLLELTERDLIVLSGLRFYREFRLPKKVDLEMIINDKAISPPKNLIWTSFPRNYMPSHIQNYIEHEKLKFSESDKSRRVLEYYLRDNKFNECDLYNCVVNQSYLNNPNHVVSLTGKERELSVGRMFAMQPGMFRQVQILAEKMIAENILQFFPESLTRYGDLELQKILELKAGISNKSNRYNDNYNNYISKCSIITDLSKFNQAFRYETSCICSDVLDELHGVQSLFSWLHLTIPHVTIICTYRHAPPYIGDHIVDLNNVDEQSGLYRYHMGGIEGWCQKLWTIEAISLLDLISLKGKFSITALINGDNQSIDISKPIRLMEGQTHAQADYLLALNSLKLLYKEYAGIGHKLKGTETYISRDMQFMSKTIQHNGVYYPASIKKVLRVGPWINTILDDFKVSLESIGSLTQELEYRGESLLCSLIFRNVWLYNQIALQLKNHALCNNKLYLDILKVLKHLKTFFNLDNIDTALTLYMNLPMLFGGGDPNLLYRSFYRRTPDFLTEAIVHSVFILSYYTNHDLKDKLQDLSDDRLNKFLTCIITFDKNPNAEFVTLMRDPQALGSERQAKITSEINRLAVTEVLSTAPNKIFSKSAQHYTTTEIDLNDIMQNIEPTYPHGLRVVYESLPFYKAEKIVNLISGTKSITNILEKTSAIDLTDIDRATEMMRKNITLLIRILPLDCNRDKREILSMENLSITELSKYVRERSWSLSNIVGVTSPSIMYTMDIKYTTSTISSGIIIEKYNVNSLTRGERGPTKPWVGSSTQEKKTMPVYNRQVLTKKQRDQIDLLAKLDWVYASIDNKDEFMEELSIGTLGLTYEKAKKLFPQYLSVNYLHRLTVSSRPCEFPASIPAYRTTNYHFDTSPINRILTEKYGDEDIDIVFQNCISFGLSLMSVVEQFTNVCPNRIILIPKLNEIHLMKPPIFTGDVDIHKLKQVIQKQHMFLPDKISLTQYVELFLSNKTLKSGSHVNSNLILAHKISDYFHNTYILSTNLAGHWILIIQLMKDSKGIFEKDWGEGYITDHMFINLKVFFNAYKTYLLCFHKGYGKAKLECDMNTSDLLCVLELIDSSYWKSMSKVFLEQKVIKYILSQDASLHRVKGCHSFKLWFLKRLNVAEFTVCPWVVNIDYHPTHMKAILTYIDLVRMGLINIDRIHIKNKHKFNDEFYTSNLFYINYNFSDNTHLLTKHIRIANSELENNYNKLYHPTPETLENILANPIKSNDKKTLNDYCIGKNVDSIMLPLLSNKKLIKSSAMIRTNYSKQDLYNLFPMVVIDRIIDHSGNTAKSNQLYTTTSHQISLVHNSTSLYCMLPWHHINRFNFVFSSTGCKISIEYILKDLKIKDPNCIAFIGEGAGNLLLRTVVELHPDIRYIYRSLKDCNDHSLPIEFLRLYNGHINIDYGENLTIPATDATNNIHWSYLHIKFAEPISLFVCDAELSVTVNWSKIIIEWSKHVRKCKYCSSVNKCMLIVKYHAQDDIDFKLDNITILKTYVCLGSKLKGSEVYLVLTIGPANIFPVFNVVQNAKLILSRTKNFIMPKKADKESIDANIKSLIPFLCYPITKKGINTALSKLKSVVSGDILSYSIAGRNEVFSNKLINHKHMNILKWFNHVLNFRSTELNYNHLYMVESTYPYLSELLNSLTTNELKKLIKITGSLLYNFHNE
T1 sequence (P03421 whole entry, further chain): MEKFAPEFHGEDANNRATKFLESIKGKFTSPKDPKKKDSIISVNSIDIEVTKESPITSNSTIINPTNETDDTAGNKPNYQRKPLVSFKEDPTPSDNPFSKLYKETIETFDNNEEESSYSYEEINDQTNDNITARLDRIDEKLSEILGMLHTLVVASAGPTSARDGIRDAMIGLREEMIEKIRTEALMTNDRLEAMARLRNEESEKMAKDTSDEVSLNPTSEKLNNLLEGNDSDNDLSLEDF

SMILES	IC50 [1]	CC50 at 5 days [2]	CC50 at 4 days [3]	further results
C[C@@]1(O)[C@H](O)[C@@H](COP(=O)(O)OP(=O)(O)OP(=O)(O)O)O[C@H]1c1ccc2c(N)ncnn12 [((2R,3R,4R,5S)-5-(4-aminopyrrolo[2,1-f][1,2,4]triazin-7-yl)-3,4-dihydroxy-4-methyltetrahydrofuran-2-yl)methyl tetrahydrogen triphosphate, reference compound]	8.5 µM			
C[C@@]1(F)[C@H](O)[C@@H](COP(=O)(O)OP(=O)(O)OP(=O)(O)O)O[C@H]1c1ccc2c(N)ncnn12 [((2R,3R,4R,5S)-5-(4-aminopyrrolo[2,1-f][1,2,4]triazin-7-yl)-4-fluoro-3-hydroxy-4-methyltetrahydrofuran-2-yl)methyl tetrahydrogen triphosphate, reference compound]	> 100 µM			
N#C[C@]1(COP(=O)(O)OP(=O)(O)OP(=O)(O)O)O[C@@H](c2ccc3c(N)ncnn23)[C@H](F)[C@@H]1O [Example 6, ((2R,3R,4R,5S)-5-(4-aminopyrrolo[1,2-f][1,2,4]triazin-7-yl)-2-cyano-4-fluoro-3-hydroxytetrahydrofuran-2-yl)methyl tetrahydrogen triphosphate]	0.086 µM			
C#C[C@]1(COP(=O)(O)OP(=O)(O)OP(=O)(O)O)O[C@@H](c2ccc3c(N)ncnn23)[C@H](F)[C@@H]1O [Example 7, ((2R,3R,4R,5S)-5-(4-aminopyrrolo[1,24][1,2,4]triazin-7-yl)-2-ethynyl-4-fluoro-3-hydroxytetrahydrofuran-2-yl)methyl tetrahydrogen triphosphate]	1 µM			
N#C[C@]1(COP(=O)(O)OP(=O)(O)OP(=O)(O)O)O[C@@H](c2ccc3c(N)ncnn23)[C@H](O)[C@@H]1O [Example 8, ((2R,3S,4R,5S)-5-(4-aminopyrrolo[1,2-f][1,2,4]triazin-7-yl)-2-cyano-3,4-dihydroxytetrahydrofuran-2-yl)methyl tetrahydrogen triphosphate]	0.025 µM			
[N-]=[N+]=N[C@]1(COP(=O)(O)OP(=O)(O)OP(=O)(O)O)O[C@@H](c2ccc3c(N)ncnn23)[C@H](O)[C@@H]1O [Example 9, ((2R,3S,4R,5S)-5-(4-aminopyrrolo[2,1-f][1,2,4]triazin-7-yl)-2-azido-3,4-dihydroxytetrahydrofuran-2-yl)methyl tetrahydrogen triphosphate]	0.12 µM			
C[C@]1(CO)O[C@@H](c2ccc3c(N)ncnn23)[C@H](F)[C@@H]1O [Example 24, (2R,3R,4R,5S)-5-(4-aminopyrrolo[2,1-f][1,2,4]triazin-7-yl)-4-fluoro-2-(hydroxymethyl)-2-methyltetrahydrofuran-3-ol]		11 µM	> 100 µM	EC50 (RSV strain A2; [4]): 1 µM; EC50 (RSV strain A2; HEp-2 anti-RSV activity, read-out: EC50 (HEp-2 anti-RSV activity)): < 100 µM
N#C[C@]1(CO)O[C@@H](c2cc(F)c3c(N)ncnn23)[C@H](O)[C@@H]1O [Example 25, (2R,3S,4R,5S)-5-(4-amino-5-fluoropyrrolo[2,1-f][1,2,4]triazin-7-yl)-3,4-dihydroxy-2-(hydroxymethyl)tetrahydrofuran-2-carbonitrile]		> 93 µM	> 100 µM	EC50 (RSV strain A2; [4]): 9.2 µM
CCOC(=O)[C@H](C)NP(=O)(OC[C@@]1(C#N)O[C@@H](c2ccc3c(N)ncnn23)[C@H](O)[C@@H]1O)Oc1ccccc1 (stereo partly drawn) [Example 35, (2S)-ethyl 2-(((((2R,3S,4R,5S)-5-(4-aminopyrrolo[2,1-f][1,2,4]triazin-7-yl)-2-cyano-3,4-dihydroxytetrahydrofuran-2-yl)methoxy)(phenoxy)phosphoryl)amino) propanoate]		47 µM	> 50 µM	EC50 (RSV strain A2; HEp-2, 96 h): 0.34 µM
